From patent publication US20220323406A1, “METHODS AND COMPOSITIONS FOR DIFFERENTIATING STEM CELLS” (Massachusetts Institute of Technology, priority 2019, published 2022)
Entries after “also recorded” stand apart in the source; their conditions may differ.

Columns and labels:
[1] = Roberts et al, 1986; cited from earlier work
[2] = system: Paneth cells in ENR+CD organoids; assay: Flow cytometry of 3D-cultured intestinal organoids, Paneth cells (lysozyme-positive, CD24-positive); assay type: cell-based, mouse; settings: 160 nM KPT-8602 or 2 ng/mL Leptomycin B, ENR+CD 6 days
From the text: Flow cytometry analysis (3D culture). ISC-enriched organoids cultured in 3D Matrigel with ENRCV media were passaged to 24-well plate in 3D Matrigel with ENRCV. At day zero, media were replaced to ENRCD with or without indicated compounds, and media were replaced every other day. At day six, cells were washed with basal media, and then harvested from Matrigel by mechanical disruption in TrypLE Express (ThermoFisher, 12605010) to remove Matrigel and dissociate organoids to single cells. After vigorous pipetting and incubation at 37° C. for 20 min, dissociated organoids were strained through a 35 μm cell strainer into a tube (Falcon, 352235). […] Cell pellets were resuspended in FACS buffer (2% FBS in PBS), and then transferred to an ultra low-bind 96-well plate (Corning, 7007). Cells were stained with Zombie-violet viability dye (BioLegend, 423107) at 100× for viability staining and/or antibody staining solution. FITC-conjugated antibody for lysozyme (Dako, F0372) and APC-conjugated antibody for CD24 (BioLegend, 138505) were used at 100× dilution. Flow cytometry was performed using an LSR Fortessa (BD; Koch Institute Flow Cytometry Core at MIT). The data were analyzed using FlowJo v10 software.
The results of primary and secondary screening reflect a mixture of potential effects arising from small molecule treatment which may result in increases in total LYZ secretion. This includes contributions from enhanced Paneth cell differentiation, altered Paneth cell activity and changes in total cell number concurrent with differentiation. To better inform how the 6 compounds identified in the screen increased total secreted LYZ, and to isolate only those which enhance Paneth differentiation robustly, Applicants next utilized flow cytometry to measure the changes in Paneth cell representation within the treated organoids. […] Single live cells were selected by several gating strategies and Paneth cells were identified as lysozyme-high, CD24-mid, side scatter-high (SSC-high) (FIG. 27E). […] To evaluate whether the culture media supplements C and D may alter the effects of the 6 hits, Applicants also performed lysozyme assay in the canonical ENR culture condition in 3-D (because Paneth cells exist in an immature state within ENR, Applicants were unable to robustly quantify Paneth cell number via flow cytometry).
Flow cytometry. ISC-enriched organoids in 3D Matrigel culture were passaged to a 48-well plate and induced differentiation for 6 days by ENR+CD media containing DMSO or each drug indicated in the figures. DMSO- or drug-containing media were changed every other day. On day 6, cells were washed twice with basal media, then harvested from Matrigel by the mechanical disruption in TrypLE Express (Thermo, #12605010) to remove Matrigel and dissociate organoids to single cells. After vigorous pipetting and incubation at 37° C. for 15 min, the cell solution was diluted twice with basal media and centrifuged at 300 ref for 3 min. The cell pellet was resuspended in FACS buffer (PBS containing 2% FBS) and replaced into a 96-well Clear Round Bottom Ultra-Low Attachment Microplate (Corning, #7007). The cell solution was centrifuged again at 300 rcf for 3 min at 4° C. to pellet the cells. Cells were stained with Zombie-violet dye (BioLegend, #423113) at 100× for viability staining for 20 min at RT in the dark. After centrifugation for 3 min at 300 rcf, cells were fixed in fixation buffer (FACS buffer containing 1% formaldehyde (Thermo, #28906)) for 15 min on ice in the dark. Cells were centrifuged again for 3 min at 300 rcf and blocked with staining buffer (FACS buffer containing 0.5% Tween20 (Sigma, P2287)) for 15 min at RT in the dark. Pelleted cells by the centrifugation for 3 min at 300 rcf are stained with FITC-conjugated anti-lysozyme antibody (Dako, F0372) and APC-conjugated anti-CD24 antibody (Biolegend, #138505) at 100× for 45 min at RT in the dark.

[3] = Newlands et al, 1996; cited from earlier work
[4] = system: lysozyme (LYZ) in intestinal organoids; assay: Western blotting of lysozyme in 3D-cultured intestinal organoids; assay type: cell-based, mouse; settings: ENR+CV, ENR+CD or ENR, 6 days
From the text: Western blotting. ISC-enriched organoids cultured in 3D Matrigel with ENRCV media were passaged to 24-well plate in 3D Matrigel with ENRCV. At day zero, media were replaced to ENR or ENRCD with or without indicated compounds, and media were replaced every other day. At day six, cells were harvested from Matrigel by mechanical disruption and suspended in basal media. Cell pellets were lysed with Pierce® IP lysis buffer (ThermoFisher, 87787) containing Halt™ Protease Inhibitor Cocktail, EDTA-Free (ThermoFisher, 87785) after 3-minute centrifuge at 300×g at 4° C. Cell extracts were resolved by NuPAGE® SDS-PAGE Gel system (ThermoFisher) and electroblotted onto polyvinylidene difluoride membranes using Criterion™ Blotter (Biorad). The membranes were blocked with 2% Blotting-Grade Blocker (Biorad, 1706404) in TBS-T (50 mM Tris-HCl, 150 mM NaCl, and 0.1% Tween 20, pH 8.0) and then probed with appropriate antibodies. Detection was performed using ECL Select™ Western Blotting Detection Reagent (Amersham, 45-000-999) and ImageQuant LAS4000 (GE Healthcare).
Western blotting. Organoid-containing gel was homogenized in basal medium and centrifuged at 300 rcf for 3 min. Organoid pellet was lysed with ice-cold Pierce IP Lysis Buffer (Thermo Fisher Scientific, #87787) containing Halt Protease Inhibitor Cocktail, EDTA-Free (Thermo Fisher Scientific, #87785) and incubated on ice for 20 min. The lysate was centrifuged at 17,000 rcf for 10 min, and the supernatant was combined with NuPAGE LDS Sample Buffer (Thermo Fisher Scientific, NP0007). Protein concentration was determined by Pierce 660 nm Protein Assay (Thermo Fisher Scientific, #22660) and normalized to the lowest concentration among each sample set. […] Chemiluminescent signals were detected by LAS4000 (GE Healthcare) using Amersham ECL Select Western Blotting Detection Reagent (GE Healthcare, #45-000-999), and total protein signals were obtained by Odyssey Imaging System (LI-COR Biosciences) using REVERT Total Protein Stain Kit (LI-COR Biosciences, #926-11010).

intestinal organoids = assay: Population RNA-sequencing of treated organoids; assay type: cell-based, mouse; settings: ENR+CV, ENR+CD or ENR
Procedure: Population RNA-sequencing. Population RNA-seq was performed using a derivative of the Smart-Seq2 protocol for single cells. In brief, organoid media was aspirated and RLT+BME (Qiagen) was added to each well, and plate shaken for 30 minutes to fully lyse. Lysate was aliquoted into 4 identical fractions and stored at −80° C. until reverse transcription. RNA lysate was thawed and cleaned with a 2.2×SPRI ratio using Agencourt RNAClean XP beads (Beckman Coulter, A63987). RNA-seq was performed on a bulk population of sorted basal cells using Smart-Seq2 chemistry, starting with a 2.2×SPRI ratio cleanup. After oligo-dT priming, Maxima H Minus Reverse Transcriptase (ThermoFisher EP0753) was used to synthesize cDNA with an elongation step at 52° C. before PCR amplification (15 cycles for tissue, 18 cycles for sorted basal cells) using KAPA HiFi PCR Mastermix (Kapa Biosystems KK2602). Sequencing libraries were prepared using the Nextera XT DNA tagmentation kit (Illumina FC-131-1096) with 250 pg input for each sample. Libraries were pooled post-Nextera and cleaned using Agencourt AMPure SPRI beads with successive 0.7× and 0.8× ratio SPRIs and sequenced with an Illumina 75 Cycle NextSeq500/550v2 kit (Illumina FC-404-2005) with loading density at […], with paired end 35 cycle read structure. Samples were sequenced at an average read depth of 8.44 million reads per sample and a total of 96 samples.
Organoid samples were aligned to the Mm10 genome and transcriptome using STAR and RSEM. […] For module scoring with the in vivo Paneth and enteroendocrine cell-defining genes, Applicants used previously published gene sets and computed per sample module scores through the Seurat package.

ISCs / Paneth cells = settings: Hayase et al., 2017; cited from earlier work

## CCC(=C/[C@H](C)C/C=C/C(C)=C/[C@@H](C)C(=O)[C@@H](C)[C@H](O)[C@@H](C)C/C(C)=C/C(=O)O)/C=C/[C@@H]1OC(=O)C=C[C@@H]1C [Leptomycin B]
[1]
  tolerability in animals: poorly tolerated with marked gastrointestinal toxicity
[2]
  Paneth cell representation / proportion in organoids: statistically significant increases in Paneth cell representation; also recorded: statistically significant increases in the Paneth cell fraction
[2]; listed as leptomycin B
  Paneth cell representation / proportion in organoids: increased the proportion of PC
[3]
  tolerability in humans: poorly tolerated with marked gastrointestinal toxicity
[4]
  LYZ abundance per-mass protein (Western blot): appreciably increase LYZ abundance

## NC(=O)/C(=C/n1cnc(-c2cc(C(F)(F)F)cc(C(F)(F)F)c2)n1)c1cncnc1 [KPT-8602]
Intestinal organoids
  secretory cell gene set scores (Paneth, goblet, EEC) from bulk transcripts: increase secretory cells (Paneth, goblet, and EEC)
[2]
  Paneth cell representation / proportion in organoids: statistically significant increases in Paneth cell representation; also recorded: statistically significant increases in the Paneth cell fraction; also recorded: increased the proportion of PC
[4]
  LYZ abundance per-mass protein (Western blot): appreciably increase LYZ abundance

B1: R-spondin1: a potent WNT agonist (protein, UniProt Q2MKA7 21-263, looked up)
R-spondin-1: SRGIKGKRQRRISAEGSQACAKGCELCSEVNGCLKCSPKLFILLERNDIRQVGVCLPSCPPGYFDARNPDMNKCIKCKIEHCEACFSHNFCTKCKEGLYLHKGRCYPACPEGSSAANGTMECSSPAQCEMSEWSPWGPCSKKQQLCGFRRGSEERTRRVLHAPVGDHAACSDTKETRRCTVRRVPCPEGQKRRKGGQGRRENANRNLARKESKEAGAGSRRRKGQQQQQQQGTVGPLTSAGPA
ISCs / Paneth cells
  alpha-defensin secretion and dysbiosis in mice with GvHD: elevate the secretion of alpha-defensins and resolve dysbiosis seen in mice with GvHD
